Data: patent US8114991B2, “Amino-1,3,5-triazines N-substituted with chiral bicyclic radicals, process for their preparation, compositions thereof, and their use as herbicides and plant growth regulators” (Bayer Cropscience AG, priority 2003, dated 2012)

Assays:
[1] = test system: harmful plants such as Sinapis alba, Echinochloa crus-galli, Lolium multiflorum, Stellaria media, Cyperus iria, Amaranthus retroflexus, Setaria viridis, Avena …; assay: Post-emergence effect on weeds (greenhouse pot test); format: in vivo; conditions: application rate of 2 kg or less of active ingredient per hectare; treated in the three-leaf stage; scored after approx. 3 to 4 weeks by comparison with untreated controls
[2] = test system: harmful plants such as Stellaria media, Lolium multiforum, Amaranthus retroflexus, Sinapis alba, Avena sativa and Setaria viridis; assay: Pre-emergence effect on weeds (greenhouse pot test); format: in vivo; conditions: application rate of 1 kg or less of active ingredient per hectare; scored after 3 to 4 weeks by comparison with untreated controls
From the text: Seeds or rhizome pieces of monocotyledonous and dicotyledonous weed plants were placed in sandy loam in plastic pots and covered with soil. The compounds according to the invention, which were formulated in the form of wettable powders or emulsion concentrates, were then applied to the surface of the soil cover as aqueous suspension or emulsion at various dosages with an application rate of 600 to 800 l of water per ha (converted).
After the treatment, the pots were placed into a greenhouse and kept under good growth conditions for the weeds. The plant or emergence damage was scored visually after the test plants have emerged after an experimental time of 3 to 4 weeks by comparison with untreated controls.

SMILES	herbicidal post-emergence activity against harmful plants (scored visually) [1]	pre-emergence control of harmful plants (plant or emergence damage scored visually) [2]
Cc1nc(N)nc(N[C@@H]2CCCc3ccccc32)n1 [Compound 8.11]	very good herbicidal post-emergence activity	very good pre-emergence control
Cc1ccc2c(c1)[C@H](Nc1nc(C)nc(N)n1)CCC2 [Compound 8.12]	very good herbicidal post-emergence activity	very good pre-emergence control
Cc1cc(C)c2c(c1)[C@H](Nc1nc(C)nc(N)n1)CCC2 [Compound 8.15]	very good herbicidal post-emergence activity	very good pre-emergence control
Cc1ccc2c(c1)[C@H](Nc1nc(C)nc(N)n1)CCO2 [Compound 8.21]	very good herbicidal post-emergence activity	very good pre-emergence control
CCc1nc(N)nc(N[C@@H]2CCc3ccccc32)n1 [Compound 8.24]	very good herbicidal post-emergence activity	very good pre-emergence control
CCc1nc(N)nc(N[C@@H]2CCc3ccc(C)cc32)n1 [Compound 8.25]	very good herbicidal post-emergence activity	very good pre-emergence control
CCc1nc(N)nc(N[C@@H]2CCc3ccc(F)cc32)n1 [Compound 8.26]	very good herbicidal post-emergence activity	very good pre-emergence control
CCc1nc(N)nc(N[C@@H]2CCCc3ccccc32)n1 [Compound 8.34]	very good herbicidal post-emergence activity	very good pre-emergence control
CCc1nc(N)nc(N[C@@H]2CCCc3ccc(C)cc32)n1 [Compound 8.35]	very good herbicidal post-emergence activity	very good pre-emergence control
CCc1nc(N)nc(N[C@@H]2CCCc3c(C)cc(C)cc32)n1 [Compound 8.38]	very good herbicidal post-emergence activity	very good pre-emergence control
CCc1nc(N)nc(N[C@@H]2CCOc3ccc(C)cc32)n1 [Compound 8.44]	very good herbicidal post-emergence activity	very good pre-emergence control
CCCc1nc(N)nc(N[C@@H]2CCc3ccc(C)cc32)n1 [Compound 8.48]	very good herbicidal post-emergence activity	very good pre-emergence control
CCCc1nc(N)nc(N[C@@H]2CCc3ccc(F)cc32)n1 [Compound 8.49]	very good herbicidal post-emergence activity	very good pre-emergence control
CCCc1nc(N)nc(N[C@@H]2CCCc3ccc(C)cc32)n1 [Compound 8.58]	very good herbicidal post-emergence activity	very good pre-emergence control
CCCc1nc(N)nc(N[C@@H]2CCCc3c(C)cc(C)cc32)n1 [Compound 8.61]	very good herbicidal post-emergence activity	very good pre-emergence control
Cc1ccc2c(c1)[C@H](Nc1nc(N)nc(C(C)C)n1)CC2 [Compound 8.67]	very good herbicidal post-emergence activity	very good pre-emergence control
CC(C)c1nc(N)nc(N[C@@H]2CCc3ccc(F)cc32)n1 [Compound 8.68]	very good herbicidal post-emergence activity	very good pre-emergence control

SMILES	herbicidal post-emergence activity against harmful plants (scored visually) [1]	pre-emergence control of harmful plants (plant or emergence damage scored visually) [2]
Cc1ccc2c(c1)[C@H](Nc1nc(N)nc(C(C)C)n1)CCC2 [Compound 8.71]	very good herbicidal post-emergence activity	very good pre-emergence control
Cc1ccc2c(c1)[C@H](Nc1nc(N)nc(C(C)C)n1)CCO2 [Compound 8.75]	very good herbicidal post-emergence activity	very good pre-emergence control
Cc1ccc2c(c1)[C@H](Nc1nc(N)nc(C(C)(Cl)Cl)n1)CC2 [Compound 8.79]	very good herbicidal post-emergence activity	very good pre-emergence control
Nc1nc(CF)nc(N[C@@H]2CCc3ccccc32)n1 [Compound 8.90]	very good herbicidal post-emergence activity	very good pre-emergence control
Nc1nc(CF)nc(N[C@@H]2CCCc3ccccc32)n1 [Compound 8.100]	very good herbicidal post-emergence activity	very good pre-emergence control
Nc1nc(CCl)nc(N[C@@H]2CCc3ccccc32)n1 [Compound 8.113]	very good herbicidal post-emergence activity	very good pre-emergence control
Nc1nc(CCl)nc(N[C@@H]2CCCc3ccccc32)n1 [Compound 8.117]	very good herbicidal post-emergence activity	very good pre-emergence control
CC1(c2nc(N)nc(N[C@@H]3CCc4ccccc43)n2)CC1 [Compound 8.148]	very good herbicidal post-emergence activity	very good pre-emergence control
CC1(c2nc(N)nc(N[C@@H]3CCCc4ccccc43)n2)CC1 [Compound 8.152]	very good herbicidal post-emergence activity	very good pre-emergence control
Nc1nc(N[C@@H]2CCc3ccccc32)nc(C2(F)CC2)n1 [Compound 8.160]	very good herbicidal post-emergence activity	very good pre-emergence control
Nc1nc(N[C@@H]2CCCc3ccccc32)nc(C2(F)CC2)n1 [Compound 8.170]	very good herbicidal post-emergence activity	very good pre-emergence control
Nc1nc(N[C@@H]2CCc3ccccc32)nc(C2(Cl)CC2)n1 [Compound 8.183]	very good herbicidal post-emergence activity	very good pre-emergence control
Nc1nc(N[C@@H]2CCCc3ccccc32)nc(C2(Cl)CC2)n1 [Compound 8.187]	very good herbicidal post-emergence activity	very good pre-emergence control
CC(C)(F)c1nc(N)nc(N[C@@H]2CCc3ccccc32)n1 [Compound 8.195]	very good herbicidal post-emergence activity	very good pre-emergence control
Cc1ccc2c(c1)[C@H](Nc1nc(N)nc(C(C)(C)F)n1)CC2 [Compound 8.196]	very good herbicidal post-emergence activity	very good pre-emergence control
CC(C)(F)c1nc(N)nc(N[C@@H]2CCc3ccc(F)cc32)n1 [Compound 8.197]	very good herbicidal post-emergence activity	very good pre-emergence control
